# Data: US10188630B2, “Methods for identifying and using inhibitors of casein kinase 1 epsilon isoform for inhibiting the growth and/or proliferation of MYC-driven tumor cells” (Fred Hutchinson Cancer Research Center, priority 2010, dated 2019)
# Key:
# [1] = test system: IMR-32 (amplified MYCN expression); conditions: 1 μM or 10 μM; 48, 72 and 96 hours; compared to SK-N-AS
# Experimental: (§1) Cyclopamine, a known natural inhibitor of SHH, was administered to SK-N-AS and IMR-32, to assess the impact of SHH inhibition on cell viability of neuroblastoma cells with normal and amplified MYCN expression, respectively. Cyclopamine was administered to the SK-N-AS and IMR-32 in 1 μM or 10 μM doses, and the growth inhibition was assayed at 48, 72 and 96 hours.
# [2] = test system: SK-N-AS (normal MYCN expression); conditions: 1 μM or 10 μM; 48, 72 and 96 hours
# Experimental: as §1
# [3] = test system: IMR-32 neuroblastoma cells (amplified MYCN expression); assay: Cell viability of neuroblastoma cells treated with IC261; type: cell-based
# Experimental: Lentiviral vectors expressing Dox-inducible shRNAs targeting CSNK1ε were transduced into SK-N-AS, a neuroblastoma line with normal MYCN expression, and SK-N-BE2 and IMR-32, neuroblastoma lines with amplified MYCN expression. Expression of the shRNAs were induced with Dox and cell viability was assayed after four days using the CellTiter Glo assay (Promega, Madison, Wis.).
# To evaluate the therapeutic potential of CSNK1ε kinase inhibitors for the inhibition of tumor cell growth, the kinase function of CSNK1ε polypeptide was blocked with IC261, a small molecule inhibitor of CSNK1ε and d kinase activity (Mashhoon, N., et al., “Crystal Structure of a Conformation-Selective Casein Kinase-1 Inhibitor,” J Biol Chem 275:20052-20060, 2000). Specifically, the sensitivity of MYC overexpressing cells to IC261 relative to control, was determined in vitro utilizing the neuroblastoma cell lines SK-N-AS (normal MYCN expression) and IMR-32 (amplified MYCN expression). Cultured cells were treated with a range of concentrations of IC261 and percent of cell viability was recorded over four days as described above. […] The difference in cell viability was significant at the 1, 5 and 10 μM concentrations.
# [4] = test system: IMR-32 cells (amplified MYCN expression); assay: Microscopic analysis of neuroblastoma cells after IC261; type: cell-based; conditions: 48 hours; 0.1 μM or 1.0 μM IC261
# Experimental: (§2) Microscopic analysis of the SN-N-AS (normal MYCN expression) and IMR-32 (amplified MYCN expression) neuroblastoma cell lines, further supporting the differential effect of the CSNK1ε inhibitor, IC261, on the health and proliferation of neuroblastoma cells overexpressing MYCN. Referring to FIG. 5, top line, micrographs are provided illustrating SK-N-AS (normal MYCN expression) cells in culture before and 48 hours after culture with DMSO, 0.33 μM, or 3.3 μM IC261. Referring to FIG. 5, bottom line, micrographs are provided illustrating IMR-32 cells (amplified MYCN expression) in culture before and 48 hours after culture with DMSO, 0.1 μM, or 1.0 μM IC261.
# [5] = test system: SK-N-AS (normal MYCN expression) cells; assay: as above; type: cell-based; conditions: 48 hours; 0.33 μM or 3.3 μM IC261
# Experimental: as §2
# [6] = test system: IMR-32 (amplified MYCN expression) xenograft blastoma tumors; assay: IMR-32 neuroblastoma xenograft in NOD/SCID mice; type: in vivo
# Experimental: To evaluate the therapeutic potential of CSNK1ε kinase inhibitors, IC261, a small molecule inhibitor of CSNK1ε and d kinase activity (Mashhoon, N., et al., “Crystal Structure of a Conformation-Selective Casein Kinase-1 Inhibitor,” J Biol Chem 275:20052-20060, 2000) was administered to mice with established IMR-32 (amplified MYCN expression) xenograft blastoma tumors. Specifically, 10 NOD/SCID mice were injected with 1×10^7 IMR-32 blastoma cells. The tumors were allowed to establish for 6 weeks. The mice were randomized into control and IC261 treatment groups. At the start of treatment, the average tumor size for the control mice was 98.8±42.5 mm^3, whereas the average tumor size for the IC261 treatment group was 121.9±46.9 mm^3. The groups were subcutaneously injected once daily for seven days with 20.5 mg/kg of IC261 or DMSO in 200 μl. During treatment, the tumor size was monitored. […] However, at day three the average tumor volume of the IC261-treated mice was reduced, a trend that continued throughout the remaining treatment schedule, ultimately to a volume of about 100 mm^3. In contrast, the tumor volume of the DMSO-treated mice continued to increase to a volume of about 350 mm^3. Histological sections of tumors from each group were prepared after the 8th day of IC261 treatment. The tumor sections were subjected to hematoxylin and eosin (H-E) stain, TUNEL stain, and BrdU staining to ascertain the cell structure, and frequencies of cell apoptosis, and cell proliferation within the tumors. […] The images shown in FIG. 7D are representative of at least 10 fields viewed over two stained sections per animal.
# [7] = test system: WNT signaling (β-catenin reporter) in Tet-21N neuroblastoma cells; assay: Integrated WNT reporter in Tet-21N neuroblastoma cells; type: cell-based; conditions: MYCN-on cells
# Experimental: (§3) CSNK1ε has been implicated as a positive regulator of WNT signaling (Sakanaka, C., “Phosphorylation and Regulation of Beta-Catenin by Casein Kinase I Epsilon,” J Biochem 132:697-703, 2002). To determine the functional status of WNT activity in neuroblastoma cells with or without amplified MYCN expression, a WNT dual reporter system, employing both consensus (TOP) and mutant (FOP) TCF binding sites was assayed in neuroblastoma cell lines SK-N-AS (MYCN not amplified), SH-Sy5Y (MYCN not amplified), IMR-32 (MYCN amplified and overexpressed), and SK-N-BE2 (MYCN amplified and overexpressed), as described in (Biechele, T. L., et al., “Transcription-Based Reporters of Wnt/beta-Catenin Signaling,” Cold Spring Harb Protoc 2009, pdb prot5223).
# A potential direct connection of WNT with MYCN expression was explored utilizing neuroblastoma cells expressing an inducible Tet-MYCN gene. Tet-21N neuroblastoma cells (normal MYCN expression) carrying a Tet-off-MYCN gene, were treated with or without Dox (a tetracycline compound), as described supra. […] Further, the WNT activity was assayed through the detectable activity of an integrated WNT reporter.
# [8] = test system: WNT signaling (β-catenin activity) in COLO720E ovarian cells; assay: Relative β-catenin activity (WNT signaling) in COLO720E ovarian cells; type: cell-based, human; conditions: higher doses of IC261 (0, 0.67, 3.3, 6.67 μM tested)
# Experimental: as §3
# The impact of stable knock-down of CSNK1ε was assessed for the expression for WNT signal function. To confirm the efficacy of the stable knockdown technique in ovarian cells, Dox-inducible lentivirus constructs encoding shRNAs targeting CSNK1ε were transduced into COLO720E ovarian cells. […] Next, to assess the WNT signaling activity, relative β-catenin activity was assayed as described, supra, for COLO720E ovarian cells transduced with the shRNA encoding lentivirus targeting CSNK1ε. […] A similar effect on relative β-catenin activity was observed upon administration of IC261, the inhibitor of CSNK1ε. […]
# [9] = test system: HFF with cMYC induced, TOV112D, COLO720E (amplified c-MYC expressing); assay: Cell viability with increasing IC261, cells with amplified c-MYC; type: cell-based, human; conditions: IC261 at 0.5 log μM and above
# Experimental: (§4) The effect of CSNK1ε on the cell viability of ovarian cancer lines was investigated in vitro. First, HFF (non-cancer primary cells) with control vector, RMG-1 (normal c-MYC expressing), CaOV3 (normal c-MYC expressing), HFF with cMYC induced (amplified c-MYC expressing), TOV112D (amplified c-MYC expressing), and COLO720E (amplified c-MYC expressing) were exposed to increasing concentrations of IC261. Cell viability was assessed as described above.
# [10] = Cell viability with increasing IC261, normal c-MYC expressing cells; type: cell-based; conditions: human; IC261 at 0.5 log μM and above
# Experimental: as §4
# DOV13 = assay: IC261 loss of cell viability, ovarian cancer cell panel; type: cell-based; conditions: Homo sapiens
# Experimental: as §4
# (§5) Similar assays were performed with an additional panel of ovarian cancer cells, including IGROV-1, PE01, DOV13, OAW42, TOV21G, and SKOV3. The log of the half maximal effective concentration (log IC50) was calculated to reflect half the concentration of IC261 required to results in complete loss of cell viability.
# IGROV-1 = assay: as above; type: cell-based; conditions: Homo sapiens
# Experimental: as §4, §5
# OAW42 = assay: as above; type: cell-based; conditions: Homo sapiens, OAW-42
# Experimental: as §4, §5
# PE01 = assay: as above; type: cell-based; conditions: Homo sapiens
# Experimental: as §4, §5
# SKOV3 = assay: as above; type: cell-based; conditions: Homo sapiens, SK-OV-3
# Experimental: as §4, §5
# TOV21G = assay: as above; type: cell-based; conditions: Homo sapiens
# Experimental: as §4, §5
# [11] = test system: TOV112D/Luc human ovarian cancer cells; assay: Peritoneal carcinomatosis model mice (TOV112D/Luc intraperitoneal xenograft); type: in vivo
# Experimental: The effect of CSNK1ε on the cell viability of ovarian cancer cells was then investigated in vivo. Peritoneal carcinomatosis model mice were generated by the intraperitoneal injection of TOV112D/Luc cells. After one week, the mice were randomized into control and experimental groups, which then received daily injections of IC261 or DMSO carrier for three weeks. Weekly Luc imaging was performed for each mouse at the termination of each week of the experiment to monitor the relative viability of cancer cells that have established in the mice. […] As illustrated in the survival graph in FIG. 11B, the DMSO group and IC261 treatment groups diverged in percent survival starting at day 30 when the DMSO group began to experience drastic mortality.
# [12] = test system: CaOV3 cells (normal c-MYC expression); assay: Cell cycle analysis (Propidium Iodide staining, FACS); type: cell-based, human; conditions: 1 μM IC261; 16 and 24 hours
# Experimental: (§6) Ovarian cancer cell lines with normal (i.e., low) and amplified expression of c-MYC were assessed for the impact of the CSNK1ε inhibitor IC261 on the progression of the cell cycle. CaOV3 cells (normal c-MYC expression) and TOV112D cells (amplified c-MYC expression) were cultured in 1 μM IC261. The cells were assessed for the state of the cell cycle, namely G1, S-phase, and G2, at time points before and 16 and 24 hours after contact with IC261 by Propidium Iodide staining followed by FACS analysis. […] However, the levels were lower for the cells with amplified c-MYC expression. […] This trend was not observed for the cancer cells with normal c-MYC expression.
# [13] = test system: TOV112D cells (amplified c-MYC expression); assay: as above; type: cell-based, human; conditions: 1 μM IC261; 16 and 24 hours
# Experimental: as §6
# [14] = test system: A2780 ovarian cancer cells; assay: Cell viability with cisplatin in presence or absence of IC261; type: cell-based; conditions: 1 μM IC-261 with increasing doses of cisplatin
# Excerpt: (§7) Cisplatin, or cis-diamminedichloroplatinum(II) (CDDP), is a chemotherapy drug commonly used to treat numerous types of cancers including ovarian cancer. Cisplatin contains platinum complexes that crosslink DNA, ultimately triggering apoptosis of the cell. However, many treated cancer relapse and display a resistance to cisplatin. Considering the ability of CSNK1ε inhibitors to reduce viability of cells with amplified c-MYC expression, a similar role of CSNK1ε inhibitors on cisplatin resistant cancer cells was investigated. A2780 and A2780-CP70 (resistant derivative), PEO1 and PEO4 (resistant derivative of PE01) ovarian cancer cell lines were cultured in the presence of increasing doses of cisplatin and the presence or absence of IC261. Cell viability was monitored as described above. […] It is noted that the c-MYC expression level in A2780 cells is yet undetermined.
# [15] = test system: A2780-CP70 (cisplatin-resistant) ovarian cancer cells; assay: as above; type: cell-based; conditions: 1 μM IC-261 with increasing doses of cisplatin
# Excerpt: as §7
# [16] = test system: PEO1 ovarian cancer cells; assay: as above; type: cell-based; conditions: 1 μM IC-261 with low doses of cisplatin
# Excerpt: as §7
# [17] = test system: PEO4 (cisplatin-resistant derivative) ovarian cancer cells; assay: as above; type: cell-based, human; conditions: 1 μM IC-261 with low doses of cisplatin
# Excerpt: as §7
structure (smiles),measurement,setting,value
CC1=C2C[C@H]3[C@@H](CC=C4C[C@@H](O)CC[C@@]43C)[C@@H]2CC[C@]12O[C@@H]1C[C@H](C)CN[C@H]1[C@H]2C [Cyclopamine],growth inhibition,[1],more pronounced
same,growth inhibition,[2],Growth inhibition was detected
COc1cc(OC)c(/C=C2/C(=O)Nc3ccccc32)c(OC)c1 [IC261],"percent cell viability, IMR-32 compared to SK-N-AS","[3]; 48 hours, IC261 0.33 μg/ml and higher",lower percent cell viability
same,"difference in cell viability, IMR-32 vs SK-N-AS",[3]; 72 hours,significant difference in cell viability
same,"difference in cell viability, IMR-32 vs SK-N-AS","[3]; 96 hours, higher doses",not statistically significant
same,cell appearance in micrographs,[4],detached from the plate surface and balled up
same,cell appearance in micrographs,[5],maintained healthy spreading and attachment
same,average tumor volume at end of treatment schedule,[6]; 20.5 mg/kg subcutaneously once daily for seven days,about 100 mm^3
same,cell proliferation in tumor sections (BrdU stain) vs DMSO control,[6]; after the 8th day of IC261 treatment,drastically reduced indications of cell proliferation
same,average tumor volume,"[6]; day three of treatment, 20.5 mg/kg s.c. daily",reduced
same,tumor volume vs DMSO-treated mice,"[6]; first two days of treatment, 20.5 mg/kg s.c. daily",no significant difference
same,WNT reporter (β-catenin signal),[7],repression of the WNT reporter
same,relative β-catenin activity,[8],reduced by more than two thirds
same,relative viability,[9],≤ 25%
same,viability,[10],≥ 75%
same,IC50,DOV13,7.09 µM
same,IC50,IGROV-1,585 µM
same,IC50,OAW42,6.61 µM
same,IC50,PE01,8.8 µM
same,IC50,SKOV3,4.63 µM
same,IC50,TOV21G,6.55 µM
same,survival vs DMSO group,"[11]; daily injections for three weeks, groups diverged starting at day 30",prolonged the life of the subjects
same,cancer cell proliferation and viability (Luc imaging) vs DMSO,"[11]; daily injections, after two weeks",significantly reduced cancer cell proliferation and viability
same,difference among treatment groups (Luc imaging),[11]; week four,much more pronounced
same,cells in the G2 phase,[12],small and transient ability to cause cell cycle arrest in G2
same,percentage of cells in the G1 phase,[12],drastically reduced
same,cells in the G2 phase,[13],arrested at the G2 checkpoint
same,percentage of cells in the G1 phase,[13],drastically reduced
same,response to cisplatin (cell viability),[14],greatly sensitized
same,response to cisplatin (cell viability),[15],greatly sensitized
same,cell viability with low doses of cisplatin,[16],large reduction in cell viability
same,cell viability with low doses of cisplatin,[17],large reduction in cell viability
